Drawing on publication PMC10945555, “Improving Activity of New Arylurea Agents against Multidrug-Resistant and Biofilm-Producing Staphylococcus epidermidis” (ACS Medicinal Chemistry Letters, 2024), this text covers Clin for 1 compound.

The data set can be described thus: Microsomal stability assay. The settings on record: RLM, 60 min of incubation. The procedure: were treated with 100 μL of tested compound at the final concentration of 200 μM, and incubated at 37 °C for 1 h. Triton X-100 (2%) and PBS were used as positive and negative controls, respectively. After centrifugation at 3000 rpm for 3 min, 100 μL of the supernatants were transferred to a 96 well microtiter plate and the hemoglobin release was determined in a SpectraMax iD3 reader (Molecular Devices) by absorption at 540 nm.
2.3.4 Microsomal stability assay […]
following previously reported procedures.7 Tested compound was preincubated at 37 °C in a phosphate buffer (pH 7.4), containing rat liver microsomes (Sigma-Aldrich, Germany), at the concentration of 0.4 mg/mL. After 10 min, NADPH-regenerating system was added to initiate the reaction. At appropriate time points (0, 30 and 60 min), reaction was quenched with ice-cold methanol, containing the internal standard pentoxiphylline. Next samples were centrifuged and the supernatant was subjected to UPLC-MS analysis. From slope of the line on plot Ln (%remaining of parent compounds) vs time, t1/2 was determined. Clint was calculated from […]
experiment was run in duplicate. The metabolized drug verapamil was used as positive control […]
provided by Molecular Discovery Ltd. (Hertfordshire, UK). A highest probability of metabolic sites and metabolite structures were analysed by liver computational model. 8 […]

Molecules are shown by their SMILES.

As for `O=C(Nc1cccc(Cl)c1)NC1CCN(CCC(Oc2ccc(C(F)(F)F)cc2)c2cccs2)CC1` (stereo not shown) [Compound 25], the Clin amounted to 26.7.
